What was measured:
CRH-COE^CNS mice = experiment: Sleep EEG/EMG recording of REMS activity in CRH-COE^CNS mice treated with CRH-R1 antagonist; assay type: in vivo, mouse; conditions: 50 mg/kg/d via drinking water; for REMS activity: CRH-COE^CNS mice, versus baseline, significant beginning with treatment day two (DMP-696 P<0.05; SSR125543 P≦0.035)
Experimental: Experiments were conducted with two different mouse lines of excessive central CRH secretion and their respective control littermates (CL). Mice of the CRH-COE^CNS line are characterised by CRH-overexpression within the whole CNS, whereas mice of the Cor26 CRH line display a CRH-overexpression specific to CRH-ergic neurons of the CNS. Three different CRHR1 antagonists were tested. […] In all cases, animals were left to recover from EEG/EMG-electrode implantation for two weeks, after which two days of baseline recording were initiated. Treatment with CRH-R1 antagonist or respective vehicle control commenced thereafter for five consecutive days. Antagonists were applied through the drinking water at a daily dose of 50 mg/kg body weight. EEG and EMG recordings were manually scored as wake, non-REMS (NREMS), and REMS in four second epochs by an experienced evaluator.

[1] = system: mice overexpressing CRH in the forebrain; conditions: Kimura et al. 2010; cited from earlier work
Cor26 CRH mice = experiment: Sleep EEG/EMG recording of REMS levels in Cor26 CRH mice treated with CRH-R1 antagonist; conditions: 50 mg/kg/d via drinking water; for REMS levels: CRH-overexpressing Cor26 CRH mice

What does the source list for `COCC(COC)Nc1nc(C)nc2c(-c3ccc(Cl)cc3Cl)c(C)nn12` [DMP-696]?
REMS activity, treatment day three (CRH-COE^CNS mice; CRH-COE^CNS animals, treatment day three): strongest suppression; REMS activity (CRH-COE^CNS mice; 50 mg/kg/day): significant decrease; REMS activity (CRH-COE^CNS mice; listed as DMP696, 50 mg/kg/day): suppressed; REM enhancement [1]: reverse the REM enhancement

Which REMS levels (Cor26 CRH mice; 50 mg/kg/day) does the source give for `CCC(CC)Oc1cc(C)nc(Oc2c(C)cc(C)cc2C)c1C` [CP-316,311] here?
Its REMS levels is “apparently seemed weak”.

And the REMS levels (Cor26 CRH mice; listed as CP-316311, 50 mg/kg/day)?
Its REMS levels is “suppressed”.

And the “REMS levels, area under the curve (AUC) within the light period, baseline versus treatment day three” value (Cor26 CRH mice; Cor26 CRH mice, P=0.006)?
Its value is “significant decrease”.

Reference: patent US20150278438A1, “GENETIC PREDICTORS OF RESPONSE TO TREATMENT WITH CRHR1 ANTAGONISTS” (MAX-PLANCK-GESELLSCHAFT ZUR FÖRDERUNG DER WISSENSCHAFTEN …, priority 2012, published 2015)
